Marks after values point to notes of the source that are not given here.
System: Breast tumors (BT) in female FBV/N mice transgenic for HER-2/neu
Assay: antitumor activity in mice with HER-2/neu breast tumors
Assay type: in vivo, FVB mice transgenic for HER-2/neu
Settings: for average total volume of tumors, % changes from baseline / average volume of tumors, % changes from baseline: 28 days
Excerpt: The age of animals at the beginning of the study was 21-41 weeks and weight was 25-30 g.
The control groups were given the olive oil (placebo).
TGI=(Vctrl−Vexp)/Vctrl×100(%),

Compound: CC1(C)CC(=O)[C@@]2(C)CCc3c(ccc4cc(OS(N)(=O)=O)ccc34)[C@@H]2C1 [medicament, 3-O-sulfamate-16,16-dimethyl-D-homoequilenin]
- Average volume of new tumors at the end of observation period (M) (medicament 20 mg/kg): 0.15 cm^3
- average total volume of tumors, % changes from baseline (medicament 20 mg/kg): 106%
- average volume of tumors, % changes from baseline (medicament 20 mg/kg): 103%
- TGI (average total tumor volume) (medicament 20 mg/kg, Day 0): 25%
- TGI (average tumor volume) (medicament 20 mg/kg, Day 0): 8%
- average total volume of tumors in mice (M) (medicament 20 mg/kg, Day 0): 1.69 cm^3
- average volume of tumors (M) (medicament 20 mg/kg, Day 0): 0.35 cm^3
- relative change of the average total volume to that of Day − 1 (M) (medicament 20 mg/kg, Day 0): 0%
- TGI (average total tumor volume) (medicament 20 mg/kg, Day 7): 36%
- TGI (average tumor volume) (medicament 20 mg/kg, Day 7): 22%
- average total volume of tumors in mice (M) (medicament 20 mg/kg, Day 7): 1.93 cm^3
- average volume of tumors (M) (medicament 20 mg/kg, Day 7): 0.39 cm^3
- relative change of the average total volume to that of Day − 1 (M) (medicament 20 mg/kg, Day 7): 19%
- TGI (average total tumor volume) (medicament 20 mg/kg, Day 14): 36%
- TGI (average tumor volume) (medicament 20 mg/kg, Day 14): 21%
- average total volume of tumors in mice (M) (medicament 20 mg/kg, Day 14): 2.67* cm^3
- average volume of tumors (M) (medicament 20 mg/kg, Day 14): 0.55 cm^3
- relative change of the average total volume to that of Day − 1 (M) (medicament 20 mg/kg, Day 14): 64^a %
- TGI (average total tumor volume) (medicament 20 mg/kg, Day 21): 38%
- TGI (average tumor volume) (medicament 20 mg/kg, Day 21): 25%
- average total volume of tumors in mice (M) (medicament 20 mg/kg, Day 21): 3.15** cm^3
- average volume of tumors (M) (medicament 20 mg/kg, Day 21): 0.64 cm^3
- relative change of the average total volume to that of Day − 1 (M) (medicament 20 mg/kg, Day 21): 91^aa %
- TGI (average total tumor volume) (medicament 20 mg/kg, Day 28): 40%
- TGI (average tumor volume) (medicament 20 mg/kg, Day 28): 27%
- average total volume of tumors in mice (M) (medicament 20 mg/kg, Day 28): 3.48**^a cm^3
- average volume of tumors (M) (medicament 20 mg/kg, Day 28): 0.71* cm^3
- relative change of the average total volume to that of Day − 1 (M) (medicament 20 mg/kg, Day 28): 107*^aa %
- Total number of new tumors (medicament 20 mg/kg, end of experiment): 23
- frequency of tumor stabilizations (medicament 20 mg/kg, end of observation): 22%
- Average volume of new tumors at the end of observation period (M) (medicament 100 mg/kg): 0.12* cm^3
- average total volume of tumors, % changes from baseline (medicament 100 mg/kg): 59%
- average volume of tumors, % changes from baseline (medicament 100 mg/kg): 60%
- TGI (average total tumor volume) (medicament 100 mg/kg, Day 0): 25%
- TGI (average tumor volume) (medicament 100 mg/kg, Day 0): 8%
- average total volume of tumors in mice (M) (medicament 100 mg/kg, Day 0): 1.70 cm^3
- average volume of tumors (M) (medicament 100 mg/kg, Day 0): 0.35 cm^3
- relative change of the average total volume to that of Day − 1 (M) (medicament 100 mg/kg, Day 0): 0%
- TGI (average total tumor volume) (medicament 100 mg/kg, Day 7): 41%
- TGI (average tumor volume) (medicament 100 mg/kg, Day 7): 26%
- average total volume of tumors in mice (M) (medicament 100 mg/kg, Day 7): 1.79 cm^3
- average volume of tumors (M) (medicament 100 mg/kg, Day 7): 0.37 cm^3
- relative change of the average total volume to that of Day − 1 (M) (medicament 100 mg/kg, Day 7): 1^a %
- TGI (average total tumor volume) (medicament 100 mg/kg, Day 14): 45%
- TGI (average tumor volume) (medicament 100 mg/kg, Day 14): 31%
- average total volume of tumors in mice (M) (medicament 100 mg/kg, Day 14): 2.30* cm^3
- average volume of tumors (M) (medicament 100 mg/kg, Day 14): 0.48 cm^3
- relative change of the average total volume to that of Day − 1 (M) (medicament 100 mg/kg, Day 14): 38^a %
- TGI (average total tumor volume) (medicament 100 mg/kg, Day 21): 46%
- TGI (average tumor volume) (medicament 100 mg/kg, Day 21): 33%

Source: patent US20220105058A1, “USE OF 3-O-SULFAMATE-16,16-DIMETHYL-D-HOMOEQUILENIN TO TREAT ONCOLOGICAL DISEASES” (priority 2018, published 2022)
